One test has as its system TNFα. Kind of test: Inhibition of TNFα in LPS-stimulated macrophage cell cultures (ELISA). The test is classed as cell-based. The settings on record: LPS-stimulated macrophages. A digest of the protocol: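 LPS-activated macrophage cultures, grown as in the PGE2 assay, treated with compounds; TNFα production/release measured by ELISA.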
The subject of another test is PGE2. Put plainly: Inhibition of prostaglandin synthesis (PGE2) in LPS-stimulated macrophage cell cultures. In kind it is cell-based. The settings on record: LPS-stimulated macrophages. A digest of the protocol:
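Prostaglandin synthesis measured in macrophage cell cultures after LPS exposure to induce an inflammatory response, with compounds tested for inhibition.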

A short description of test [1]: Body weight gain during staircase testing after transient MCAo. The test is classed as in vivo, rats. Conditions: compared to base line. The procedure:
Animals were allowed to recover from the surgery for five days. The mild food deprivation was re-employed during the days following the ischemic insult. They were tested in the staircase box using the above method for 9-12 days. Animals were weighed twice a week during this period.
Animals were kept under mild food deprivation during the staircase testing (except during weekends). Under these conditions, the following results were observed: • Sham and PRS-211,095 10 mg/kg treated rats gained the maximal body weight (15 and 17% respectively compared to base line). […] These differences were not statistically different.

The next test concerns ear edema model in mice. Kind of test: Ear edema model. In kind it is in vivo. Conditions: Mus musculus, Croton oil (CO) as inducer, IP. A digest of the protocol: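 Mice received Croton oil or arachidonic acid as inflammation inducer; test compounds were scored for preventing or diminishing the resulting ear edema.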

These results are taken from patent EP1785417A2, “Novel non-psychotropic cannabinoids” (priority 2000, dated 2001).

The structures appear in SMILES notation.

Regarding `CCCCCCC(C)(C)c1cc(O)c2c(c1)OC(C)(C)[C@H]1CC=C(Cn3ccnc3)C[C@H]21` (single isomer, unassigned) [211,095-000], the figures for the inhibition at 10 µM with TNFα and with PGE2 were 11% and 72%, respectively. The body weight gain result is listed as “did not gain weight” in test [1] (0.5 mg/kg), “did not gain weight” in test [1] (2.5 mg/kg), 4% in test [1] (5 mg/kg) and 17% in test [1] (10 mg/kg). In the test on ear edema model in mice, the ED50 – broadly, the midpoint of the dose-response relation – amounted to 29 µmol/kg.
Regarding `CCCCCCC(C)(C)c1cc(O)c2c(c1)OC(C)(C)[C@H]1CC=C(CO)C[C@H]21` [211,007-000 HU-211, 1,1 dimethyl heptyl-(3 S,4S)-7-hydroxy-Δ^6-tetrahydrocannabinol, reference compound], the values for the inhibition at 10 µM with TNFα and with PGE2 were 33% and 54%, respectively. Further, the body weight gain in test [1] (5 mg/kg) amounted to 7%. The molecule further showed a median effective dose (ED50) with ear edema model in mice of 25 µmol/kg.
